Test systems include M14 melanoma; SW-620 colon; MDA-MB-435; OVCAR-5 ovarian; A549 NSCLC; HS 578T breast; MALME-3M melanoma; SK-MEL-2 melanoma.
What all share (assay): growth of human tumour cells (NCI), 48 h

SMILES strings stand for the structures.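 Where inhibition never reached the appropriate level, the endpoint shown equals the highest concentration tested. Otherwise, values were interpolated linearly from a five-concentration, 48-hour dose response in 96-well plates. GI50 marks 50% less growth. At the TGI there is no net growth.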

With `CN(C)CCn1cc(-c2ccc3c(Nc4ccc(CC(=O)Nc5cccc(F)c5)cc4)ncnc3c2)cn1`, the GI50 was 1.49 µM in the assay on M14 melanoma; 1.05 µM with SW-620 colon; 2.86 µM with MDA-MB-435; 1.58 µM in the assay on OVCAR-5 ovarian; 1.3 µM in the assay with A549 NSCLC; 1.92 µM in the assay with HS 578T breast. For the same compound, the GI50 in the assay with MALME-3M melanoma is 4.7 µM; in the assay with SK-MEL-2 melanoma it was above 10 µM. Moreover, the TGI is 3.26 µM in the assay on M14 melanoma; 2.91 µM with SW-620 colon; above 10 µM in the assay on MDA-MB-435; 4.26 µM in the assay on OVCAR-5 ovarian; 3.46 µM with A549 NSCLC; above 10 µM in the assay on HS 578T breast. Also, the TGI with MALME-3M melanoma and with SK-MEL-2 melanoma was above 10 µM throughout.

`O=c1c2ccccc2nc(-c2ccc(Cl)cc2)n1O`: the TGI in the assay on M14 melanoma, in the assay on SW-620 colon, in the assay with MDA-MB-435, with OVCAR-5 ovarian, in the assay on A549 NSCLC and in the assay with HS 578T breast was above 100 µM each time.

In the case of `NS(=O)(=O)c1ccc(-n2nc(-c3ccc(Cl)cc3)cc2C2=CC(=O)C=CC2=O)cc1`, the GI50 with M14 melanoma is 23 µM; in the assay on SW-620 colon it was 19.8 µM; in the assay on MDA-MB-435, 22.9 µM; in the assay on OVCAR-5 ovarian, 19.5 µM; in the assay on A549 NSCLC, 30 µM; in the assay on HS 578T breast, 23.8 µM. In addition, in the assay with SK-MEL-2 melanoma, the GI50 was 58 µM. Moreover, the TGI is 42.8 µM with M14 melanoma; 48.3 µM with SW-620 colon; 67.1 µM in the assay with MDA-MB-435; 46.1 µM in the assay on OVCAR-5 ovarian; above 100 µM with A549 NSCLC; 72.6 µM with HS 578T breast. In addition, in the assay with SK-MEL-2 melanoma, the TGI is above 100 µM.

Consider `Cc1ccc(Cl)cc1Nc1nc(C(F)(F)F)ccc1C(=O)Oc1ccc(Cl)cc1`, for which the GI50 was 18.1 µM in the assay with M14 melanoma; 17 µM in the assay with SW-620 colon; 16.8 µM in the assay with MDA-MB-435; 10.5 µM in the assay with OVCAR-5 ovarian; 4.86 µM in the assay with A549 NSCLC; 3.13 µM in the assay on HS 578T breast. Further, the GI50 in the assay on SK-MEL-2 melanoma was 17.7 µM. Further, the TGI in the assay with M14 melanoma is above 100 µM; in the assay on SW-620 colon, above 100 µM; in the assay with MDA-MB-435, 51.9 µM; in the assay on OVCAR-5 ovarian, 27.5 µM; in the assay with A549 NSCLC, 20.5 µM; in the assay on HS 578T breast, 14.8 µM. Further, the TGI in the assay on SK-MEL-2 melanoma was above 100 µM.

Regarding `N#C/C(=C/N1CCN(C(=O)c2ccco2)C1=S)C(N)=O`, the GI50 is 16.5 µM with M14 melanoma; 22.1 µM in the assay on SW-620 colon; 14.6 µM in the assay with MDA-MB-435; 34.5 µM in the assay on A549 NSCLC; 12.5 µM in the assay with MALME-3M melanoma; 24.4 µM in the assay on SK-MEL-2 melanoma. The TGI in the assay on M14 melanoma is 43.2 µM; with SW-620 colon it was 81.7 µM; in the assay with MDA-MB-435, 44.1 µM; in the assay on A549 NSCLC, above 100 µM; in the assay with MALME-3M melanoma it was 56.8 µM; in the assay with SK-MEL-2 melanoma it was 62.3 µM.

As to `O=C(Nc1ccccc1Cl)c1ccc(NC2=C(Cl)C(=O)N(Cc3ccccc3)C2=O)cc1`, the GI50 in the assay with M14 melanoma was 79.4 µM; in the assay on SW-620 colon, 25.4 µM; in the assay on MDA-MB-435, 48.4 µM; in the assay on OVCAR-5 ovarian, above 100 µM; in the assay on A549 NSCLC it was 60.4 µM; in the assay on HS 578T breast it was 32.7 µM. Also, the GI50 in the assay on MALME-3M melanoma was 86.1 µM. Also, the TGI in the assay on M14 melanoma is above 100 µM; in the assay on SW-620 colon it was 58.1 µM; in the assay on MDA-MB-435 it was above 100 µM; in the assay with OVCAR-5 ovarian, above 100 µM; in the assay on A549 NSCLC it was above 100 µM; with HS 578T breast, 69.3 µM. This compound registered a TGI in the assay with MALME-3M melanoma above 100 µM.

For `CCOC(=O)C(=Cc1ccccc1Br)C(=O)OCC`, the TGI is 2.48 µM in the assay with M14 melanoma; 5.16 µM in the assay with MDA-MB-435; 62.5 µM in the assay on OVCAR-5 ovarian; above 100 µM with A549 NSCLC; 30.9 µM in the assay with HS 578T breast; 8.26 µM with MALME-3M melanoma. The compound further came in with a TGI in the assay on SK-MEL-2 melanoma of 5.31 µM.

For the compound `O=C(NC(=S)NS(=O)(=O)c1ccc(N2N=C3c4ccccc4CC3C2c2cccs2)cc1)c1ccccc1` (stereo unspecified), the GI50 is 21.5 µM in the assay on M14 melanoma; 34.8 µM with SW-620 colon; 21.7 µM in the assay on MDA-MB-435; 18.7 µM with OVCAR-5 ovarian; 20.3 µM in the assay with A549 NSCLC; 16.1 µM in the assay on HS 578T breast. For the same compound, in the assay with SK-MEL-2 melanoma, the GI50 was 44 µM. Besides, the TGI with M14 melanoma was 58.9 µM; with SW-620 colon, above 100 µM; in the assay on MDA-MB-435, 60.6 µM; in the assay with OVCAR-5 ovarian it was 71.7 µM; with A549 NSCLC it was above 100 µM; with HS 578T breast, 68 µM. The TGI in the assay with SK-MEL-2 melanoma was above 100 µM.

Turning to `COc1ccc(/C=C(/C(=O)N2CCNCC2)c2cc(OC)c(OC)c(OC)c2)cc1O`, the GI50 was 3.83 µM with M14 melanoma; 3.69 µM with SW-620 colon; 0.418 µM with MDA-MB-435; 6.21 µM in the assay on OVCAR-5 ovarian; 6.63 µM with A549 NSCLC; 2.42 µM in the assay with HS 578T breast. Moreover, the GI50 in the assay on SK-MEL-2 melanoma is 3.51 µM. Also, the TGI was above 100 µM in the assay with M14 melanoma; above 100 µM in the assay with SW-620 colon; 1.8 µM in the assay on MDA-MB-435; above 100 µM with OVCAR-5 ovarian; above 100 µM with A549 NSCLC; 30 µM with HS 578T breast. In the assay with SK-MEL-2 melanoma, this compound returned a TGI above 100 µM.

For `CC1=C(C(=O)Nc2ccc(F)c(Cl)c2)C(c2cccc(Cl)c2)NC(=O)N1` (stereo unspecified), the GI50 was 15.8 µM with M14 melanoma; 18.9 µM in the assay with SW-620 colon; 17.9 µM in the assay with MDA-MB-435; 23 µM in the assay on OVCAR-5 ovarian; 24.7 µM with A549 NSCLC; 12.9 µM in the assay on HS 578T breast. For the same compound, the GI50 in the assay on SK-MEL-2 melanoma is 15.7 µM. Also, the TGI with M14 melanoma came out at 31.7 µM; in the assay with SW-620 colon, 40.7 µM; in the assay with MDA-MB-435, 38 µM; in the assay on OVCAR-5 ovarian it was 45.7 µM; in the assay on A549 NSCLC it was 85.1 µM; in the assay on HS 578T breast it was 37.7 µM. Further, the TGI with SK-MEL-2 melanoma was 30.5 µM.

For the compound `Oc1ccc2ccccc2c1/C=N\Nc1ccccn1`, the GI50 was 0.441 µM in the assay on M14 melanoma; 0.588 µM with SW-620 colon; 0.752 µM with MDA-MB-435; 4.25 µM in the assay with OVCAR-5 ovarian; 1.4 µM in the assay on HS 578T breast. For the same compound, the TGI in the assay on M14 melanoma is 5.34 µM; with SW-620 colon it was above 100 µM; in the assay with MDA-MB-435, above 100 µM; in the assay with OVCAR-5 ovarian, above 100 µM; in the assay on HS 578T breast, above 34.5 µM; with SK-MEL-2 melanoma, above 49 µM.

For the origin of these results see PubChem BioAssay (NCI).
